{
  "source": "patent US20240173333A1",
  "about": "“Treating Alagille Syndrome (ALGS)” (priority 2022, published 2024)",
  "key": {"[1]": {"tested_on": "patients with Alagille syndrome (ALGS)", "test": "ASSERT: global impression of change (CGIC, CaGIC, PGIC) and exit survey", "format": "in vivo, human", "details": "week 24", "protocol": "FIG. 27 is a table showing global impressions of change (GIC) over time. GIC items are assessed on a 7-point scale: 1=very much better; 2=much/moderately better; 3=a little better; 4=no change; 5=a little worse; 6=much/moderately worse; 7=very much worse. Changes based on the GIC were analyzed using a proportional odds model with treatment and baseline GIS scores as covariates considering three categories (better, no change, worse). Better includes “very much better,” “much better,” and “a little better,” and worse includes “a little worse,” “much worse,” and “very much worse.” CaGIC=Caregiver Global Impression of Change. CGIC=Clinician Global Impression of Change. PGIC=Patient Global Impression of Change. Global Impression of Change and Global Impression of Symptom Measures. Patients (≥8 years of age), caregivers, and clinicians completed global impression of change (GIC) measures (patient global impression of change (PGIC), caregiver global impression of change (CaGIC), and clinical global impression of change (CGIC)) and the global impression of symptoms (GIS) measures (patient global impression of symptoms (PGIS), caregiver global impression of symptoms (CaGIS), clinical global impression of symptoms (CGIS)) at randomization (Study Day 1; PGIS only), Week 4, 12, and 24/EOT. The GIC items assessed changes in itch (patient version), scratching (caregiver and clinician versions), and sleep (all versions) since starting the study drug. The GIS items assessed itch (patient version), scratching (caregiver and clinician versions), and sleep (all versions) in the past week. Caregivers and clinicians completed the GIC and GIS for all patients; those patients ≥8 years of age completed the patient version."}, "[2]": {"tested_on": "patients with Alagille syndrome (ALGS)", "test": "Pooled ASSERT and ASSERT-EXT: TEAEs", "format": "in vivo, human", "protocol": "In the completed 24-week ASSERT study, patients with ALGS with history of significant pruritus and elevated serum BAs were randomized 2:1 to once-daily odevixibat 120 μg/kg or placebo, respectively. Patients who completed ASSERT could enter ASSERT-EXT, an ongoing, 72-week open-label extension study in which all patients receive odevixibat 120 μg/kg/day. This pooled analysis included all odevixibat-treated patients from ASSERT and/or ASSERT-EXT and spans from patients' first dose of odevixibat to a data cut-off of Sep. 9, 2022. Assessments over up to 36 weeks of treatment included change in observer-reported scratching scores and sleep parameters, as well as levels of serum BAs, autotaxin (a proposed meditator of pruritus), and 7 alpha-hydroxy-4-cholesten-3-one (C4; a marker of bile acid synthesis). Safety evaluations included assessment of alanine aminotransferase (ALT), total bilirubin, and treatment-emergent adverse events (TEAEs)."}, "[3]": {"tested_on": "patients with Alagille syndrome (ALGS)", "test": "ASSERT pruritus responders: TEAEs", "from_the_text": "Treatment with concomitant medications for pruritus was permitted provided the patient was on a stable dosage for ≥4 weeks prior to enrollment that was maintained throughout the study.\nPruritus responders were defined as patients having a ≥1-point decrease in ObsRO scratching score from baseline to weeks 21-24)."}},
  "note": "Values joined by “and” are separate entries in the source; they are usually repeats but may differ in a detail not shown here. Equal values may be shown once. Marks after values point to notes of the source that are not given here.",
  "data": [
    {"smiles": "CCCCC1(CCCC)CN(c2ccccc2)c2cc(SC)c(OCC(=O)N[C@@H](C(=O)N[C@@H](CC)C(=O)O)c3ccc(O)cc3)cc2S(=O)(=O)N1", "note": "[odevixibat, 1,1-dioxo-3,3-dibutyl-5-phenyl-7-methylthio-8-(N-{(R)-α-[N-((S)-1-carboxypropyl)carbamoyl]-4-hydroxybenzyl}carbamoylmethoxy)-2,3,4,5-tetrahydro-1,2,5-benzothiadiazepine]", "values": [
      {"measurement": "CGIC for scratching, percentage of clinician responses (improved)", "setting": "[1]", "result": 80, "unit": "%"},
      {"measurement": "CGIC for sleep, percentage of clinician responses (improved)", "setting": "[1]", "result": 74, "unit": "%"},
      {"measurement": "CaGIC for scratching, percentage of caregiver responses (improved pruritus)", "setting": "[1]", "result": "87% and 88%"},
      {"measurement": "CaGIC for sleep, percentage of caregiver responses (improved sleep)", "setting": "[1]", "result": 78, "unit": "%"},
      {"measurement": "PGIC for itching, percentage of patient responses (improved)", "setting": "[1]; patients ≥8 years", "result": 80, "unit": "%"},
      {"measurement": "PGIC for sleep, percentage of patient responses (improved)", "setting": "[1]; patients ≥8 years", "result": 70, "unit": "%"},
      {"measurement": "odds of improvement in sleep, relative to placebo (CaGIC)", "setting": "[1]; proportional odds model", "result": "nine times higher"},
      {"measurement": "odds of improvement versus no change or worsening in scratching, relative to placebo (CaGIC)", "setting": "[1]; proportional odds model", "result": 15, "unit": "times"},
      {"measurement": "TEAEs that led to study discontinuation", "setting": "[2]", "result": "No patient"},
      {"measurement": "patients reporting drug-related diarrhea", "setting": "[2]; 6 of 52", "result": 12, "unit": "%"},
      {"measurement": "patients reporting drug-related TEAEs", "setting": "[2]; 15 of 52", "result": 29, "unit": "%"},
      {"measurement": "patients reporting TEAEs", "setting": "[2]; 43 of 52", "result": 83, "unit": "%"},
      {"measurement": "Any TEAE", "setting": "[2]; n=52", "result": "43 (83) n (%)"},
      {"measurement": "Drug-related TEAE: Abdominal pain", "setting": "[2]; n=52", "result": "2 (4) n (%)"},
      {"measurement": "Drug-related TEAE: Abdominal pain upper", "setting": "[2]; n=52", "result": "2 (4) n (%)"},
      {"measurement": "Drug-related TEAE: Diarrhea", "setting": "[2]; n=52", "result": "6 (12) n (%)"},
      {"measurement": "Drug-related TEAE: Vomiting", "setting": "[2]; n=52", "result": "2 (4) n (%)"},
      {"measurement": "Drug-related TEAEs", "setting": "[2]; n=52", "result": "15 (29) n (%)"},
      {"measurement": "Drug-related serious TEAEs", "setting": "[2]; n=52", "result": "1 (2) n (%)"},
      {"measurement": "Serious TEAEs", "setting": "[2]; n=52", "result": "6 (12) n (%)"},
      {"measurement": "Severe TEAEs", "setting": "[2]; n=52", "result": "7 (14) n (%)"},
      {"measurement": "tolerability", "setting": "[2]; up to 36 weeks", "result": "generally well tolerated"},
      {"measurement": "pruritus responders reporting any TEAE", "setting": "[3]; 21 of 28", "result": 75, "unit": "%"},
      {"measurement": "TEAEs leading to death or study drug discontinuation", "setting": "[3]; pruritus responders", "result": "no TEAEs leading to death or study drug discontinuation were reported"},
      {"measurement": "Any TEAE", "setting": "[3]; pruritus responders, n=28", "result": "21 (75) n (%)"},
      {"measurement": "Any TEAE: Mild", "setting": "[3]; pruritus responders, n=28", "result": "10 (36) n (%)"},
      {"measurement": "Any TEAE: Moderate", "setting": "[3]; pruritus responders, n=28", "result": "8 (29) n (%)"},
      {"measurement": "Any TEAE: Severe", "setting": "[3]; pruritus responders, n=28", "result": "3 (11) n (%)"},
      {"measurement": "Drug-related TEAE: Abdominal pain", "setting": "[3]; pruritus responders, n=28", "result": "1 (4) n (%)"},
      {"measurement": "Drug-related TEAE: Abdominal pain upper", "setting": "[3]; pruritus responders, n=28", "result": "1 (4) n (%)"},
      {"measurement": "Drug-related TEAE: Blood triglycerides increased", "setting": "[3]; pruritus responders, n=28", "result": "1 (4) n (%)"},
      {"measurement": "Drug-related TEAE: Diarrhea", "setting": "[3]; pruritus responders, n=28", "result": "4 (14) n (%)"},
      {"measurement": "Drug-related TEAE: Feces discolored", "setting": "[3]; pruritus responders, n=28", "result": "1 (4) n (%)"},
      {"measurement": "Drug-related TEAE: Frequent bowel movements", "setting": "[3]; pruritus responders, n=28", "result": "1 (4) n (%)"},
      {"measurement": "Drug-related TEAE: Hematemesis", "setting": "[3]; pruritus responders, n=28", "result": "1 (4) n (%)"},
      {"measurement": "Drug-related TEAE: Hepatic enzyme increased", "setting": "[3]; pruritus responders, n=28", "result": "1 (4) n (%)"},
      {"measurement": "Drug-related TEAE: INR increased", "setting": "[3]; pruritus responders, n=28", "result": "1 (4) n (%)"},
      {"measurement": "Drug-related TEAE: Nausea", "setting": "[3]; pruritus responders, n=28", "result": "1 (4) n (%)"},
      {"measurement": "Drug-related TEAE: Vomiting", "setting": "[3]; pruritus responders, n=28", "result": "2 (7) n (%)"},
      {"measurement": "Drug-related TEAE: Weight decreased", "setting": "[3]; pruritus responders, n=28", "result": "1 (4) n (%)"},
      {"measurement": "Drug-related TEAEs", "setting": "[3]; pruritus responders, n=28", "result": "8 (29) n (%)"},
      {"measurement": "Drug-related serious TEAEs", "setting": "[3]; pruritus responders, n=28", "result": "1 (4)^a n (%)"},
      {"measurement": "Serious TEAEs", "setting": "[3]; pruritus responders, n=28", "result": "3 (11) n (%)"},
      {"measurement": "TEAEs leading to discontinuation", "setting": "[3]; pruritus responders, n=28", "result": "0 n (%)"},
      {"measurement": "TEAEs leading to treatment interruption", "setting": "[3]; pruritus responders, n=28", "result": "2 (7) n (%)"}
    ]}
  ]
}
